Here are results for 14 compounds from patent US20230150924A1, “NOVEL COMPOUND HAVING CANCER METASTASIS INHIBITORY ACTIVITY, PREPARATION METHOD THEREFOR, AND PHARMACEUTICAL COMPOSITION FOR INHIBITING CANCER METASTASIS AND INVASION OR TREATING COLORECTAL CANCER, COMPRISING COMPOUND” (CELLGENTEK CO., LTD., priority 2019, published 2023).

Test [1] deals with invasion of colorectal cancer cells. The test is described as follows: In vivo relative invation (invasion; EV and KITENIN controls, no method described). The settings on record: relative to EV (=1); KIT = KITENIN.
The subject of another test is KAI1 promoter. Put plainly: KAI1 promoter luciferase reporter assay in transfected Caco2 cells. The settings on record: Homo sapiens, Caco-2, 16 h, 1 μM compound, 16 hours, transfected Caco2 cells, luciferase activity relative to DMSO control (=1); read-out: Relative KAI promoter activity. The test is classed as cell-based, human. As for the experimental part: Experiments were conducted to evaluate the metastasis-related promoter activity-increasing effects of the compounds according to the present invention. Specifically, the KAI1 promoter reporter vector was used. In this case, the pRL-TK vector, a vector expressing renilla luciferase, was used as an internal control indicating the transfection efficiency in each transfected well.
First, 24 hours before transfection, 2×10^6 human colon cancer cell line, Caco2) cells were cultured in 10 ml of DMEM containing 10% FBS and 1% penicillin/streptomycin on a 100-mm-diameter plate, and then transformed with 5 μg of a pRL-TK vector mixture containing a transfection reagent and the KAI1 promoter, and then cultured in a 5% CO2 incubator at 37° C. for 48 hours. Thereafter, the adherent cells were detached using trypsin and counted using a hemacytometer, and then 5×10^3 transfected Caco2 cells in 100 μl of DMEM containing 10% FBS and 1% penicillin/streptomycin were seeded into each well of a 96-well plate and cultured in a 5% CO2 incubator at 37° C. for 24 hours. Next, 1 μM of each of the 305 compounds prepared in Examples 1 to 305 was added to each well, and after 16 hours, 100 μl of a lysis buffer for analysis containing a luciferase substrate was added, and the cells were lysed with stirring for 20 minutes. After completion of lysis, the cells were measured for luciferase activity using a luciferase reporter assay system (Promega, USA). […] In addition, data were analyzed at a significance level of p<0.05 by one-way ANOVA (Tukey's HSD), and SPSS 17.0 (Chicago, USA) statistical program was used. In Table 14 to 20, PHA is the PHA-665752, and KIT is KITENIN.
A general note: Reporter assays use an easily measured gene product as a stand-in for the process of interest.

SMILES strings stand for the structures.

Consider `COc1cccc(C(=O)CNC(=O)c2cccc(CN3CC(C)OC(C)C3)c2)c1` (stereo not shown) [Example 295, 3-((2,6-dimethylmorpholino)methyl)-N-(2-(3-methoxyphenyl)-2-oxoethyl)benzamide], for which, in test [1], the “In vivo relative invation” value was found to be 1.311. For the same compound, the fold induction at 1 µM in the test with KAI1 promoter is 1.52.
Taken in the same sequence, the figures for `O=C(CNC(=O)c1ccccc1OCC(=O)N1CCc2ccccc2C1)c1ccccc1` [Example 227, 2-(2-(3,4-dihydroisoquinolin-2 (1H)-yl)-2-oxoethoxy)-N-(2-oxo-2-phenylethyl)benzamide] were 1.153 and 1.01.
The matching figures for `CCN(CCO)Cc1ccc(C(=O)NCC(=O)c2ccccc2)cc1` [Example 274, 4-((ethyl(2-hydroxyethyl)amino)methyl)-N-(2-oxo-2-phenylethyl)benzamide]: 1.219 and 5.27.
Taken in the same sequence, the figures for `CN(C)c1ccc(C(=O)CNC(=O)CC(C)(C)C)cc1` [Example 102, N-(2-(4-(dimethylamino)phenyl)-2-oxoethyl)-3,3-dimethylbutanamide] were 1.121 and 2.53.
For `O=C(CNC(=O)c1ccc(OC(F)(F)F)cc1)c1ccc(Cl)cc1` [Example 81, N-(2-(4-chlorophenyl)-2-oxoethyl)-4-(trifluoromethoxy)benzamide], in test [1], the “In vivo relative invation” value came to 1.142. In the test on KAI1 promoter, the fold induction at 1 µM is 0.8.
As for `COc1ccc(S(=O)(=O)NCC(=O)c2ccc(N(C)C)cc2)cc1` [Example 111, N-(2-(4-(dimethylamino)phenyl)-2-oxoethyl)-4-methoxybenzenesulfonamide], the “In vivo relative invation” value in test [1] is 1.065. Further, the fold induction at 1 µM in the test on KAI1 promoter was 1.44.
`CC(C)N(C)Cc1ccc(C(=O)NCC(=O)c2ccccc2)cc1` [Example 256, 4-((isopropyl(methyl)amino)methyl)-N-(2-oxo-2-phenylethyl)benzamide]: the “In vivo relative invation” value in test [1] came to 1.267. In the test on KAI1 promoter, the fold induction at 1 µM was determined as 2.25.
For `Cc1ccccc1C(=O)NCC(=O)c1ccc(N(C)C)cc1` [Example 96, N-(2-(4-(dimethylamino)phenyl)-2-oxoethyl)-2-methylbenzamide], the “In vivo relative invation” value in test [1] amounted to 1.141. Moreover, the fold induction at 1 µM in the test with KAI1 promoter came to 2.23.
Taken in the same sequence, the figures for `CS(=O)(=O)NCC(=O)c1ccccc1` [Example 25, N-(2-oxo-2-phenylethyl)methanesulfonamide] were 1.215 and 1.49.
Taken in the same sequence, the figures for `O=C(CNC(=O)c1ccc(OC(F)(F)F)cc1)c1ccccc1` [Example 38, N-(2-oxo-2-phenylethyl)-4-(trifluoromethoxy)benzamide] were 1.119 and 1.57.
For the compound `O=C(CNC(=O)c1ccccc1OC1CCN(S(=O)(=O)Cc2ccccc2)CC1)c1ccccc1` [Example 188, 2-((1-(benzylsulfonyl)piperidin-4-yl)oxy)-N-(2-oxo-2-phenylethyl)benzamide], in test [1], the “In vivo relative invation” value worked out at 1.123. Besides, the fold induction at 1 µM in the test with KAI1 promoter amounted to 0.92.
The matching figures for `CCCN(CC)Cc1cccc(C(=O)NCC(=O)c2cccc(OC)c2)c1` [Example 294, 3-((ethyl(propyl)amino)methyl)-N-(2-(3-methoxyphenyl)-2-oxoethyl)benzamide]: 1.033 and 1.57.
Taken in the same sequence, the figures for `O=C(CNC(=O)c1ccccc1OC1CCN(C(=O)C2CCC2)CC1)c1ccccc1` [Example 167, 2-((1-(cyclobutanecarbonyl)piperidin-4-yl)oxy)-N-(2-oxo-2-phenylethyl)benzamide] were 1.159 and 1.04.
The matching figures for `O=C(COc1ccccc1C(=O)NCC(=O)c1ccccc1)Nc1cccnc1` [Example 208, 2-(2-oxo-2-(pyridin-3-ylamino)ethoxy)-N-(2-oxo-2-phenylethyl)benzamide]: 1.184 and 1.14.
